Measured values taken from patent publication US20230270764A1, “COMPOSITION COMPRISING CANNABINOIDS, TERPENES, AND FLAVONOIDS FOR TREATING DEPRESSION” (priority 2020, published 2023).

Legend:
BV2 microglial cells = assay: α-synuclein-induced TNFα secretion by BV2 microglia cell cultures; assay type: cell-based, murine
Procedure: The BV2 cells are cultured at 37° C. in a humidified atmosphere with 5% CO2 in high D-glucose (4.5 g/L) Dulbecco’s modified Eagle’s medium (Sigma, Rehovot, Israel) supplemented with 5% heat-inactivated fetal bovine serum, streptomycin (100 µg/ml), and penicillin (100 units/ml) and sodium pyruvate (1 mM; all from Biological Industries Ltd., Kibbutz Beit Haemek, Israel). 24 hours before experiments with LPS stimulation, the BV2 cells are split into 24 well plates, 2×10^5 cells per well, covered with 1 ml of growth medium and allowed to attach overnight. 24 hr before experiments with α-synuclein, the BV2 cells are split into 96-well plates, 50,000 (5×10^4) cells per well, covered with 200 µl of growth medium and allowed to attach overnight. Cultures of BV2 microglia cells are first treated by an individual cannabinoid, or terpene or flavonoid selected from: Cannabidiol (CBD), Δ-9-tetrahydrocannabinol (THC), Δ-8-tetrahydrocannabinol (THC), cannabigerol (CBG), cannabichromene (CBC), cannabigerolic acid (CBGA), Cannabidiolic acid (CBDA), THC acid (THCA), cannabichromenic Acid (CBCA), Cannabidivarin (CBDV), tetrahydrocannabivarin (THCV), Cannabichromevarin (CBCV), Cannabichromerocin ([…]), Cannabivarin (CBV), Cannabicitran (CBT), Cannabinol (CBN), Cannabicyclol (CBL), Cannabigerorcin (CBGO), Cannabinodiol (CBND), β-caryophyllene, β-elemene, β-myrcene, linalool, α-pinene, β-pinene, eucalyptol, alpha-terpineol, valencene, geraniol (lemonol), bisabolol, nerolidol, ocimene, terpinolene, humulene, α-terpinene, camphene, fenchol, α-phellandrene, Δ3-carene, γ-cardinene, sabinene, limonene, β-amyrin, cycloartenol, cannflavin A, cannflavin B, kaempferol, quercetin, luteolin, apigenin, canniprene, orientin, β-sitosterol, vitexin, isovitexin, and chrysin. Additional cultures of BV2 microglia cells are treated by an individual cannabinoid, with at least one additional cannabinoid, and/or terpene, and/or flavonoid, and/or celecoxib. Additional cultures are exposed to the vehicle of these compounds (cremophor, ethanol and PBS, 1:1:18 (v/v/v)) (FIG. 2A). In some studies, cultures of BV2 microglia cells are treated by a specific whole plant cannabis extract, with or without supplementation with cannabinoid(s), and/or terpene(s) and/or flavonoid(s), and/or celecoxib (FIG. 2B).
For each individual cannabinoid mentioned above, 3-4 concentrations are used, ranging from 0.1 to 10 µM. For ultra-low dose Δ9-THC the concentration used is 0.01 µM. For each individual terpene or flavonoid mentioned above, 3-4 concentrations are used, ranging from 1 to 50 µM. For celecoxib, 3-4 concentrations are used, ranging from 0.1 to 10 µM. Two hours following the treatment, the cultures are exposed to one of the following microglia stimulators: LPS (Sigma L2630; Escherichia coli serotype O111:B4) is dissolved in D-PBS (Sigma, D8537) to a pre-stock concentration of 1 mg/ml, aliquoted and stored at -80° C. Stock solution of LPS at 10 ug/ml is prepared using sterile D-PBS, followed by filtering via 0.22 µm filter membrane, aliquoting and storing in -20° C. LPS is applied into the cell medium at a final concentration of 100 ng/ml. Poly I:C (Sigma, P1530) was first dissolved in sterile, molecular grade water to the concentration of 10 mg/ml (following the manufacturer’s instructions). This stock solution was further diluted to the concentration of 1 mg/ml in sterile PBS, and the aliquots stored in -20 °C. […] To induce oligomerization, α-Synuclein solution is placed for 24 hours on a shaker with agitation of 80 rpm and at 37° C.

LPS-injected mice = assay: Social exploration test in the LPS-induced model of depression; assay type: in vivo
Excerpt: In a preliminary screening experiment, subjects were 4-6 months-old male C57BL/6 (Jackson Laboratories, USA). Animals were housed 2-3/cage, kept in an air-conditioned room (23+°C) and given ad libitum access to food and water. The mice were kept in a reversed light/dark cycle, with lights off from 7 a.m. to 7 p.m. All experiments were approved by the Hebrew University of Jerusalem Ethics Committee on Animal Care and Use. In preparation for the Sucrose Preference Test, mice were habituated 2-3 times to sucrose drinking, by exposing them overnight to two graduated tubes, one containing water and the other containing sucrose solution (1%, w/v). Water and sucrose consumption were measured, and sucrose preference was computed by dividing the amount of sucrose consumed by drinking (ml sucrose) by the total drinking volume (ml of sucrose + water). One day later, the weight of the mice and the food in their cages was weighed for later analysis of food consumption and body weight changes. […] In this test, the measured locomotor activity reflects not only motor capacity, but particularly the innate motivation for spatial exploration (which increases the distance travelled) and the anxiety level (which reduces the distance travelled, in general, and particularly the distance and time spent in the center of the open field). […] The distance travelled (cm), the velocity of the movement (cm/second), the time spent (seconds), distance travelled (cm) in the center area of the arena, as well as the number of entries from the perimeter area into the center of the arena were automatically measured over a 4-minute period, using EthoVision XT video tracking system and software (Noldus, The Netherlands). […] Social exploration, defined as the time of near contact between the nose of the subject and the juvenile in the small cage was recorded for 4 min, using computerized in-house software. Sucrose preference was assessed, as described above, between 8 to 27 hr post LPS injection. […]

C=C(C)[C@@H]1CCC(C)=C[C@H]1c1c(O)cc(CCCCC)cc1O [CBD, cannabidiol]
secretion of TNFα in cells incubated with α-synuclein aggregates/fibrils (BV2 microglial cells; Example 3, 10 µM): reduced
release of TNFα by microglia incubated with α-synuclein aggregates/fibrils (BV2 microglial cells; Example 8, CBD by itself 1, 2.5 or 5 µM): neither CBD (1, 2.5, or 5 µM) nor celecoxib (1 or 2.5 µM) by themselves affected the release of TNFα
IC50 (BV2 microglial cells; Mus musculus, BV-2, read-out: IC50, α-synuclein-induced TNFα release, Example 8 (FIG. 9B), by itself): 5.1 µM
social exploration vs LPS-injected vehicle-treated mice (LPS-injected mice; adult (6-9 months-old) male mice, acute CBD): significantly increased social interest
social exploration (LPS-injected mice; adult and young adult female mice, acute CBD, saline or LPS): None of these parameters was influenced by treatment with CBD
LPS-induced reduction in social exploration (LPS-injected mice; young-adult male mice, CBD 30 mg/kg i.p. 3 consecutive days): no effects
